Measurements from EP0908457B1, “3-(1,2-benzisothiazol- and isoxazol-5-Y1)-2,4(1H,3H)-pyrimidinedione or thione and 3-(1,2-benzisothiazol- and isoxazol-5-y1)-4(3H)-pyrimidinone or thione herbicidal agents” (BASF AKTIENGESELLSCHAFT, priority 1997, dated 1999).

Tests used:
[1] = system: Cyperus serotinus, Rottb.; assay: Preemergence weed control under flooded paddy conditions, CYPSE (Flatsedge); assay type: in vivo; settings: preemergence; on herbicidal effect rating, CYPSE: meaning of each grade not given here
[2] = system: Sagittaria pygmaea, L.; assay: Preemergence weed control under flooded paddy conditions, SAGPY (Arrowhead (Pygmaea)); assay type: in vivo; settings: preemergence, flooded paddy; on herbicidal effect rating, SAGPY: meaning of each grade not given here
[3] = system: Echinochloa oryzoides (Ard.) Fritsch.; assay: Preemergence weed control under flooded paddy conditions, ECHORC (Watergrass (Calif.)); assay type: in vivo; settings: preemergence, flooded paddy; on herbicidal effect rating, ECHORC: meaning of each grade not given here
[4] = system: Cyperus iria; assay: Preemergence weed control under flooded paddy conditions, CYPIR (Rice Flatsedge); assay type: in vivo; settings: preemergence, flooded paddy; on herbicidal effect rating, CYPIR: meaning of each grade not given here
[5] = system: Monochoria vaginalis, Presl.; assay: Preemergence weed control under flooded paddy conditions, MOOVA (Monochoria); assay type: in vivo; settings: preemergence, flooded paddy; on herbicidal effect rating, MOOVA: meaning of each grade not given here
[6] = system: Oryza sativa, (L.) Tebonnet; assay: Rice tolerance to post-transplant applications under flooded paddy conditions (Example 187), ORYSAT (Rice, Tebonnet); on herbicidal effect rating ORYSAT: meaning of each grade not given here
[7] = Rate 0.0320 kg/ha, rated three to four weeks after treatment
[8] = Rate 0.0620 kg/ha, rated three to four weeks after treatment
[9] = Rate 0.1250 kg/ha, rated three to four weeks after treatment
[10] = Rate 0.2500 kg/ha, rated three to four weeks after treatment
[11] = Rate 0.0320 kg/ha, rated 3-4 weeks after treatment
[12] = Rate 0.0620 kg/ha, rated 3-4 weeks after treatment
[13] = Rate 0.1250 kg/ha, rated 3-4 weeks after treatment
[14] = Rate 0.5000 kg/ha, rated 3-4 weeks after treatment
[15] = Rate 0.2500 kg/ha, rated 3-4 weeks after treatment
[16] = Rate 0.5000 kg/ha, rated three to four weeks after treatment

SMILES: CCCCS(=O)(=O)NC(=O)COc1ccccc1-c1nsc2ccc(-n3c(=O)cc(C(F)(F)F)n(C)c3=O)cc12 [Example 574, Acetamide, N-(butylsulfonyl)-2-{o-{5-[3,6-dihydro-3-methyl-2,6-dioxo-4-(trifluoromethyl)-1(2H)-pyrimidinyl]-1,2-benzisothiazol-3-yl}-phenoxy}-]
- herbicidal effect rating, CYPSE [1, 7]: 0.0
- herbicidal effect rating, CYPSE [1, 8]: 2.0
- herbicidal effect rating, CYPSE [1, 9]: 4.5
- herbicidal effect rating, CYPSE [1, 10]: 6.5
- herbicidal effect rating, SAGPY [2, 7]: 0.0
- herbicidal effect rating, SAGPY [2, 8]: 1.0
- herbicidal effect rating, SAGPY [2, 9]: 2.0
- herbicidal effect rating, SAGPY [2, 10]: 6.0
- herbicidal effect rating, ECHORC [3, 7]: 4.0
- herbicidal effect rating, ECHORC [3, 8]: 6.5
- herbicidal effect rating, ECHORC [3, 9]: 8.5
- herbicidal effect rating, ECHORC [3, 10]: 9.0
- herbicidal effect rating, CYPIR [4, 7]: 2.0
- herbicidal effect rating, CYPIR [4, 8]: 5.5
- herbicidal effect rating, CYPIR [4, 9]: 6.0
- herbicidal effect rating, CYPIR [4, 10]: 7.0
- herbicidal effect rating, MOOVA [5, 7]: 9.0
- herbicidal effect rating, MOOVA [5, 8]: 9.0
- herbicidal effect rating, MOOVA [5, 9]: 9.0
- herbicidal effect rating, MOOVA [5, 10]: 9.0
- herbicidal effect rating ORYSAT [6, 7]: 3.0
- herbicidal effect rating ORYSAT [6, 8]: 4.5
- herbicidal effect rating ORYSAT [6, 9]: 6.5
- herbicidal effect rating ORYSAT [6, 10]: 8.0

SMILES: Cc1ccc(OC(C)C(=O)c2ccc(C)c(C)c2)c(-c2nsc3ccc(-n4c(=O)cc(C(F)(F)F)n(C)c4=O)cc23)c1 (centres unmarked) [Example 542, 2,4(1H,3H)-Pyrimidinedione, 3-{3-{6-[1-(3,4-dimethylbenzoyl)ethoxy]-m-tolyl}-1,2-benzisothiazol-5-yl}-1-methyl-6-(trifluoromethyl)-]
- herbicidal effect rating, CYPSE [1, 11]: 0.0
- herbicidal effect rating, CYPSE [1, 12]: 0.0
- herbicidal effect rating, CYPSE [1, 13]: 0.0
- herbicidal effect rating, CYPSE [1, 14]: 0.0
- herbicidal effect rating, SAGPY [2, 11]: 0.0
- herbicidal effect rating, SAGPY [2, 12]: 0.0
- herbicidal effect rating, SAGPY [2, 13]: 0.0
- herbicidal effect rating, SAGPY [2, 15]: 0.0
- herbicidal effect rating, SAGPY [2, 14]: 9.0
- herbicidal effect rating, ECHORC [3, 11]: 1.7
- herbicidal effect rating, ECHORC [3, 12]: 2.7
- herbicidal effect rating, ECHORC [3, 13]: 4.3
- herbicidal effect rating, ECHORC [3, 15]: 8.0
- herbicidal effect rating, ECHORC [3, 14]: 9.0
- herbicidal effect rating, CYPIR [4, 11]: 0.0
- herbicidal effect rating, CYPIR [4, 12]: 0.0
- herbicidal effect rating, CYPIR [4, 13]: 2.0
- herbicidal effect rating, CYPIR [4, 15]: 4.0
- herbicidal effect rating, CYPIR [4, 14]: 9.0
- herbicidal effect rating, MOOVA [5, 11]: 7.0
- herbicidal effect rating, MOOVA [5, 12]: 9.0
- herbicidal effect rating, MOOVA [5, 13]: 9.0
- herbicidal effect rating, MOOVA [5, 15]: 9.0
- herbicidal effect rating, MOOVA [5, 14]: 9.0
- herbicidal effect rating ORYSAT [6, 11]: 0.0
- herbicidal effect rating ORYSAT [6, 12]: 0.0
- herbicidal effect rating ORYSAT [6, 13]: 0.0
- herbicidal effect rating ORYSAT [6, 15]: 0.0
- herbicidal effect rating ORYSAT [6, 14]: 2.0

SMILES: COC(=O)C(C)Oc1c(-c2nsc3ccc(-n4c(=O)cc(C(F)(F)F)n(C)c4=O)cc23)ccc(C)c1C (centres unmarked) [Example 275, Propionic acid, 2-{{6-{5-[3,6-dihydro-3-methyl-2,6-dioxo-4-(trifluoromethyl)-1(2H)-pyrimidinyl]-1,2-benzisothiazol-3-yl}-2,3-xylyl}oxy}-, methyl ester]
- CYPSE herbicidal effect rating [1, 7]: 9.0
- CYPSE herbicidal effect rating [1, 8]: 9.0
- CYPSE herbicidal effect rating [1, 9]: 9.0
- CYPSE herbicidal effect rating [1, 10]: 9.0
- CYPSE herbicidal effect rating [1, 16]: 0.0
- SAGPY herbicidal effect rating [2, 7]: 0.0
- SAGPY herbicidal effect rating [2, 8]: 0.0
- SAGPY herbicidal effect rating [2, 9]: 3.0
- SAGPY herbicidal effect rating [2, 10]: 9.0
- SAGPY herbicidal effect rating [2, 16]: 0.0
- ECHORC herbicidal effect rating [3, 7]: 3.7
- ECHORC herbicidal effect rating [3, 8]: 3.9
- ECHORC herbicidal effect rating [3, 9]: 4.1
- ECHORC herbicidal effect rating [3, 10]: 9.0
- ECHORC herbicidal effect rating [3, 16]: 7.0
- CYPIR herbicidal effect rating [4, 7]: 0.0
- CYPIR herbicidal effect rating [4, 8]: 4.0
- CYPIR herbicidal effect rating [4, 9]: 6.0
- CYPIR herbicidal effect rating [4, 10]: 7.0
- CYPIR herbicidal effect rating [4, 16]: 0.0
- MOOVA herbicidal effect rating [5, 7]: 6.0
- MOOVA herbicidal effect rating [5, 8]: 9.0
- MOOVA herbicidal effect rating [5, 9]: 9.0
- MOOVA herbicidal effect rating [5, 10]: 9.0
- MOOVA herbicidal effect rating [5, 16]: 9.0
- ORYSAT herbicidal effect rating [6, 7]: 0.0
- ORYSAT herbicidal effect rating [6, 8]: 0.0
- ORYSAT herbicidal effect rating [6, 9]: 3.0
- ORYSAT herbicidal effect rating [6, 10]: 4.0
- ORYSAT herbicidal effect rating [6, 16]: 5.0
